Measurements from US7169817B2, “Bis-aromatic alkanols” (IRM LLC, priority 2002, dated 2007).

Tests used:
Test in all cases: GTPγS binding assay using S1P receptor/HEK293 membrane preparations
Format in all cases: biochemical
Conditions in all cases: membranes of transiently transfected HEK293 cells
S1P4 = target: T1, S1P4 (Homo sapiens, UniProt O95977)
T1 construct: expressed in transfected cells; host or cells: HEK293 (transient, calcium phosphate); crude membranes
T1 sequence (O95977 1-384): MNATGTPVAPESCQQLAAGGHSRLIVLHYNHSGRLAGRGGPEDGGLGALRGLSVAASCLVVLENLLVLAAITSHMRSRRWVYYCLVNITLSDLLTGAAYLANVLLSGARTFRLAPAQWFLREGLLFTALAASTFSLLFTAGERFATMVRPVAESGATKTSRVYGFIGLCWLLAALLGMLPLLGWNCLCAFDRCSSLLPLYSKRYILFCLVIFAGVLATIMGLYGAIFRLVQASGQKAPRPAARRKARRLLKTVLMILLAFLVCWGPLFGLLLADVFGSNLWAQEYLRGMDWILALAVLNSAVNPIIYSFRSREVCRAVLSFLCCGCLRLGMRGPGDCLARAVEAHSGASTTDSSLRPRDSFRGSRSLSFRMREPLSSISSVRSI
Excerpt: (§1) A. In vitro: Binding Affinity of Compounds of Formula I to Individual Human S1P Receptors may be Determined in the Following Assays:
(§2) Transient Transfection of Human S1P Receptors into HEK293 Cells
(§3) EDG receptors and Gi proteins are cloned, and equal amounts of 4 cDNAs for the EDG receptor, Gi-α, Gi-β and Gi-γ are mixed and used to transfect monolayers of HEK293 cells using the calcium phosphate precipitate method (M. Wigler et al., Cell. 1977;11;223 and D S. Im et al., Mol. Pharmacol. 2000;57;753). Briefly, a DNA mixture containing 25 μg of DNA and 0.25 M CaCl is added to HEPES-buffered 2 mM Na2HPO4. Subconfluent monolayers of HEK293 cells are poisoned with […] chloroquine, and the DNA precipitate is then applied to the cells. After 4 hours, the monolayers are washed with phosphate-buffered saline and re-fed media (90% 1:1 Dulbecco's modified essential media (DMEM):F-12+10% fetal bovine serum). The cells are harvested 48–72 hours after addition of the DNA by scraping in HME buffer (in mM: 20 HEPES, 5 MgCl2, 1 EDTA, pH 7.4) containing 10% sucrose on ice, and disrupted using a Dounce homogenizer. After centrifugation at 800×g, the supernatant is diluted with HME without sucrose and centrifuged at 100,000×g for 1 hour. The resulting pellet is rehomogenized and centrifuged a second hour at 100,000×g. This crude membrane pellet is resuspended in HME with sucrose, aliquoted, and snap-frozen by immersion in liquid nitrogen. The membranes are stored at […] Protein concentration is determined spectroscopically by the Bradford protein assay.
(§4) GTPγS Binding Assay Using S1P Receptor/HEK293 Membrane Preparations
(§5) GTPγS binding experiments are performed as described by D S. Im et al., Mol. Pharmacol. 2000; 57:753. Ligand-mediated GTPγS binding to G-proteins is measured in GTP binding buffer (in mM: 50 HEPES, 100 NaCl, 10 MgCl2, pH 7.5) using 25 μg of a membrane preparation from transiently transfected HEK293 cells. Ligand is added to membranes in the presence of 10 μM GDP and 0.1 nM [^35S]GTPγS (1200 Ci/mmol) and incubated at 30° C. for 30 min. Bound GTPγS is separated from unbound using the Brandel harvester (Gaithersburg, Md.) and counted with a liquid scintillation counter.

S1P3 = target: T2, S1P3 (Homo sapiens, UniProt Q99500)
T2 construct: expressed in transfected cells; host or cells: HEK293 (transient, calcium phosphate); crude membranes
Excerpt: as §1, §2, §3, §4, §5

S1P1 = target: T3, S1P1 (Homo sapiens, UniProt P21453)
T3 construct: expressed in transfected cells; host or cells: HEK293 (transient, calcium phosphate); crude membranes
Excerpt: as §1, §2, §3, §4, §5

S1P2 = target: T4, S1P2 (Homo sapiens, UniProt O95136)
T4 construct: expressed in transfected cells; host or cells: HEK293 (transient, calcium phosphate); crude membranes
Excerpt: as §1, §2, §3, §4, §5

S1P5 = target: T5, S1P5 (Homo sapiens, UniProt Q9H228)
T5 construct: expressed in transfected cells; host or cells: HEK293 (transient, calcium phosphate); crude membranes
Excerpt: as §1, §2, §3, §4, §5

T5 sequence (Q9H228 whole entry): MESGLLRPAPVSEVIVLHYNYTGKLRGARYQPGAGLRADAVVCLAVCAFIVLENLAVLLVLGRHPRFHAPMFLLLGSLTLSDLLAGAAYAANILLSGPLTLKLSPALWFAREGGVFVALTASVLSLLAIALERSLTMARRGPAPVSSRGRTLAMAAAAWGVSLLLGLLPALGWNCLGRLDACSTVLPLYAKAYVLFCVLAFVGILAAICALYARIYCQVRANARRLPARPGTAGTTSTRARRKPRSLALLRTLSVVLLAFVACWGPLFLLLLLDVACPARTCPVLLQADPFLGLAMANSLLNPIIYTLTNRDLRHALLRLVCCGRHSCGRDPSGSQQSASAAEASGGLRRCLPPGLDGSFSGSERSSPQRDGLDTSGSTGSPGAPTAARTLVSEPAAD
T3 sequence (P21453 whole entry): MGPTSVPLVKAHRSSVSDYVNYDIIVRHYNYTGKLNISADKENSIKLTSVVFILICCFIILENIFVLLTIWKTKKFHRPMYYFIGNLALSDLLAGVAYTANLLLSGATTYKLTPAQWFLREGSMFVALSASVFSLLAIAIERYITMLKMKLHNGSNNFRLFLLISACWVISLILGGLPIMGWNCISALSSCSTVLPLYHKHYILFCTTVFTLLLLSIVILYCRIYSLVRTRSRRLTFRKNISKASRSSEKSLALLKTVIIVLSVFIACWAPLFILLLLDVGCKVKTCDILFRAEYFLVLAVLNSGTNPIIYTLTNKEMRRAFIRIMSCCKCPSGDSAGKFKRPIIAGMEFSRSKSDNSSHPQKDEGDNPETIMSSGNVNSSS
T4 sequence (O95136 whole entry): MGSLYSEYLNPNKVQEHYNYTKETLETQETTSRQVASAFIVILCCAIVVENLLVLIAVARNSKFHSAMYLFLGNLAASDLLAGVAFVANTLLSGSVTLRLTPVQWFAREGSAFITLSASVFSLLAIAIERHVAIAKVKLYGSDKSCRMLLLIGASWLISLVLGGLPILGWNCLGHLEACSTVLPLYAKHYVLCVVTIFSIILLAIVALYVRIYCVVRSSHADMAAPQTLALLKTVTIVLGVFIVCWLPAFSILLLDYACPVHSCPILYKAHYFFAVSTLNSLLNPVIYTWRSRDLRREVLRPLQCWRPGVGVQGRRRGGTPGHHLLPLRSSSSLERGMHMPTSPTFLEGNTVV
T2 sequence (Q99500 whole entry): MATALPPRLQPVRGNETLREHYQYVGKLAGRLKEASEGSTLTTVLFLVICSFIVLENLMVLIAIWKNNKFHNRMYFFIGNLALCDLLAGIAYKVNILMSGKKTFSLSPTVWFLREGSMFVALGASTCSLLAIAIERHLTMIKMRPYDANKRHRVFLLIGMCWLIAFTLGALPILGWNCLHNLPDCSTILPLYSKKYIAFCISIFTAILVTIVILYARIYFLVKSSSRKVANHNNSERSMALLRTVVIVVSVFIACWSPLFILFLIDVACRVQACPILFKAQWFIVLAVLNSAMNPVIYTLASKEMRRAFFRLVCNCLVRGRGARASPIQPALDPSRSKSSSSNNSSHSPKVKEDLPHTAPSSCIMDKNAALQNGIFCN

Row | EC50 (S1P4) [µM] | EC50 (S1P3) [nM] | EC50 (S1P1) [nM] | EC50 (S1P2) [µM] | EC50 (S1P5) [nM] | Compound
1 | > 10 | 53.8 | 0.16 | > 10 | 2.1 | CCCc1cc(-c2ccc(-c3ccc(CCC(N)(CO)CO)cc3)cc2)no1 [Example 41]
2 | 0.0012 | > 10000 | 0.33 | > 10 | 1.1 | CCCCCc1ccc(-c2ccc(CCC(N)(CO)CO)cc2)cc1 [Example 36]
3 | > 10 | 1.9 | 0.07 | > 10 | 0.1 | NC(CO)(CO)CCc1ccc(-c2ccc(OCc3ccc(F)c(F)c3)cc2)cc1 [Example 63]
